Among the data in patent US10980814B2, “Fused pentacyclic imidazole derivatives as modulators of TNF activity” (UCB Biopharma SRL, priority 2017, dated 2021) are IC50 values, retold here.

Structures are written as SMILES. A value given as a limit tells only on which side of the number the result lay.

The target of this assay is T1, human hERG channels (Kv11.1) (Homo sapiens, UniProt Q12809).
T1 construct: host or cells: CHO cells (hERG-Duo cells)
T1 sequence (Q12809 whole entry): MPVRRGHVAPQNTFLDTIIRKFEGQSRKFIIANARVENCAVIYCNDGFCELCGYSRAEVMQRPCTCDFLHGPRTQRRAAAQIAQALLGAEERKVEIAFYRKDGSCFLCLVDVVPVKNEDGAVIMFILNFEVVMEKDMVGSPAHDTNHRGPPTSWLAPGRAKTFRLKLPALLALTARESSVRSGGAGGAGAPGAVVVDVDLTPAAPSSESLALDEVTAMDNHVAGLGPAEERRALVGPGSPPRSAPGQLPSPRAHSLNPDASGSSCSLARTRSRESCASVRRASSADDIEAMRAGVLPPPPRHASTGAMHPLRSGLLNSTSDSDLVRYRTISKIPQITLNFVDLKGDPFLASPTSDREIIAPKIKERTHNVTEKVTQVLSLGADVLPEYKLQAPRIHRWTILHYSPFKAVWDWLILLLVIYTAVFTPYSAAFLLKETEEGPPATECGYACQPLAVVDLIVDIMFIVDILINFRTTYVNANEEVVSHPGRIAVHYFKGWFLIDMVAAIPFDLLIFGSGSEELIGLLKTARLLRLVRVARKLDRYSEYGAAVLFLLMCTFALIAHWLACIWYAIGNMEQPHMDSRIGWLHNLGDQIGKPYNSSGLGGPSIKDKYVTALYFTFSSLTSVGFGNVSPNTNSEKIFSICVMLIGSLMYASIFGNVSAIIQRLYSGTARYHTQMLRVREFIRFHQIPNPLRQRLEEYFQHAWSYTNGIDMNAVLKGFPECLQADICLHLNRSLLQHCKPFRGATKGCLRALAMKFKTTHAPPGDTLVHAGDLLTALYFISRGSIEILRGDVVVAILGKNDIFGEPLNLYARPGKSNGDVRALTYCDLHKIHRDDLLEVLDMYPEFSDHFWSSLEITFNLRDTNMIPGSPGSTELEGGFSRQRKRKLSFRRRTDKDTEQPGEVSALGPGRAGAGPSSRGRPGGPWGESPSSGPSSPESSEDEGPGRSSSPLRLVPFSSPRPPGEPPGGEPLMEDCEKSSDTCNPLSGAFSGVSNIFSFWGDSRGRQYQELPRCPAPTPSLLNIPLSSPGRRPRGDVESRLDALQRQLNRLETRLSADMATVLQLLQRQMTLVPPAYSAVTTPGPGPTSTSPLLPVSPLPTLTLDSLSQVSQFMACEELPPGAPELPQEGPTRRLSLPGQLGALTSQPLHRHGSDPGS
Put plainly: hERG assay, automated planar patch-clamp in CHO cells stably expressing human hERG channels. The note with it: peak tail-current, QPatch HTX whole-cell voltage-clamp, room temperature, 0.12-30 μM. Format: cell-based. On the procedure:
Pharmacological activity of the compounds at cardiac hERG channels (Kv11.1) was assessed functionally using an automated planar patch-clamp electrophysiology station. CHO cells stably expressing human hERG channels were grown under the permanent pressure of the appropriate selection antibiotics according to the specifications of the manufacturer (hERG-Duo cells, B'SYS GmbH, Switzerland). Cells were harvested below 80% confluence, suspended in serum-free medium and dispensed automatically to multi-well recording plates for whole-cell voltage-clamp recordings on a QPatch HTX workstation (Sophion, BiolinScientific AB, Denmark). The composition of the extracellular recording buffer was (in mM): NaCl, 150; KCl, 4; CaCl2), 2; MgCl2, 1; HEPES, 10; and glucose, 10; adjusted to pH 7.4 with NaOH. The intracellular buffer contained (in mM): KCl, 120; CaCl2), 5; MgCl2, 2; EGTA, 10; HEPES, 10; and Mg-ATP, 4; adjusted to pH 7.2 with KOH. The voltage protocol used to activate hERG currents consisted in a first depolarizing step from a −80 mV holding potential to +20 mV for 5 s followed by a second repolarizing step to −50 mV. Cycle time was 15 s, recordings were performed at room temperature and drug effects were evaluated on the peak tail-current elicited by the second repolarizing step. For pharmacology, stock solutions of the test articles at 10 mM were prepared in DMSO. A 6-point concentration-range was prepared in polypropylene micro-titer plates by first serially diluting the initial 10 mM stock 1:3 in DMSO and then diluting each of the 6 intermediate working solutions 1:333 in extracellular recording medium containing 0.06% Pluronic F-68 (Gibco/Thermofischer, France). Final concentrations of test articles (i.e. 0.12 μM, 0.37 μM, 1.1 μM, 3.3 μM, 10 μM and 30 μM) were applied cumulatively to the cells in ascending order. A positive control (terfenadine, 10 μM) was added at the end of each recording sequence. Time-course of hERG tail current amplitude was analyzed off-line following optional leak current substraction and compensation of current rundown as needed. Half-maximal inhibitory concentrations (IC50) were obtained by fitting current amplitudes measured at the end of each exposure period and normalized with respect to pre-drug baseline with a four parameter sigmoidal equation.
In general terms: hERG is a cardiac potassium channel; its block is linked to QT prolongation.
For orientation: IC50 means the midpoint of a concentration-inhibition curve. For `[2H]C([2H])(O)[C@]1(C)C[C@@](N)(c2ncc(-c3ccc4nc5n(c4c3)[C@@H]3C[C@H]5NC(=O)c4cccc(OC(F)F)c43)cn2)C1` [Example 14, (7R,14R)-11-(2-{cis-1-Amino-3-[hydroxy(dideutero)methyl]-3-methylcyclobutyl}-pyrimidin-5-yl)-1-(difluoromethoxy)-6,7-dihydro-7,14-methanobenzimidazo[1,2-b][2,5]-benzodiazocin-5(14H)-one], the IC50 is > 30 µM.

Consider `C[C@]1(CO)C[C@](N)(c2ncc(-c3ccc4nc5n(c4c3)[C@@H]3C[C@H]5NC(=O)c4cccc(OC(F)F)c43)cc2F)C1` [Example 10, (7R,14R)-11-{6-[cis-1-Amino-3-(hydroxymethyl)-3-methylcyclobutyl]-5-fluoropyridin-3-yl}-1-(difluoromethoxy)-6,7-dihydro-7,14-methanobenzimidazo[1,2-b][2,5]-benzodiazocin-5(14H)-one], for which the IC50 was > 30 µM.

For the molecule `C[C@]1(C#N)C[C@](N)(c2ncc(-c3ccc4nc5n(c4c3)[C@@H]3C[C@H]5NC(=O)c4cccc(OC(F)F)c43)cn2)C1` [Example 2, cis-3-Amino-3-{5-[(7R,14R)-1-(difluoromethoxy)-5-oxo-5,6,7,14-tetrahydro-7,14-methanobenzimidazo[1,2-b][2,5]benzodiazocin-11-yl]pyrimidin-2-yl}-1-methyl-cyclobutanecarbonitrile], the IC50 is > 30 µM.

As for `CN1C(=O)c2cccc(OC(F)F)c2[C@H]2C[C@@H]1c1nc3ccc(-c4cnc([C@]5(N)C[C@](O)(C(F)(F)F)C5)nc4)cc3n12` (single isomer, unassigned) [Example 12], the IC50 was > 30 µM.

For `C[C@]1(CO)C[C@](N)(c2ncc(-c3ccc4nc5n(c4c3)[C@@H]3C[C@H]5NC(=O)c4cccc(OC(F)F)c43)cn2)C1` [Example 15, (7R,14R)-11-{2-[cis-1-Amino-3-(hydroxymethyl)-3-methylcyclobutyl]pyrimidin-5-yl}-1-(difluoromethoxy)-6,7-dihydro-7,14-methanobenzimidazo[1,2-b][2,5]benzodiazocin-5(14H)-one], the IC50 is > 30 µM.

Consider `CN1C(=O)c2cccc(OC(F)F)c2[C@H]2C[C@@H]1c1nc3ccc(-c4cnc([C@]5(N)C[C@](O)(C(F)(F)F)C5)c(F)c4)cc3n12` (single isomer, unassigned) [Example 11], for which the IC50 is > 30 µM.

As to `N[C@]1(c2ncc(-c3ccc4nc5n(c4c3)[C@@H]3C[C@H]5NC(=O)c4cccc(OC(F)F)c43)cc2F)C[C@@](O)(C(F)(F)F)C1` [Example 13, (7R,14R)-11-{6-[cis-1-Amino-3-hydroxy-3-(trifluoromethyl)cyclobutyl]-5-fluoropyridin-3-yl}-1-(difluoromethoxy)-6,7-dihydro-7,14-methanobenzimidazo[1,2-b][2,5]-benzodiazocin-5(14H)-one], the IC50 was > 30 µM.

As for `C[C@]1(O)C[C@](N)(c2ncc(-c3ccc4nc5n(c4c3)[C@@H]3C[C@H]5NC(=O)c4cccc(OC(F)F)c43)cc2F)C1` [Example 8, (7R,14R)-11-[6-(cis-1-Amino-3-hydroxy-3-methylcyclobutyl)-5-fluoropyridin-3-yl]-1-(difluoromethoxy)-6,7-dihydro-7,14-methanobenzimidazo[1,2-b][2,5]benzodiazocin-5(14H)-one], the IC50 was > 30 µM.

Regarding `C[C@]1(C#N)C[C@](N)(c2ncc(-c3ccc4nc5n(c4c3)[C@@H]3C[C@H]5NC(=O)c4cccc(OC(F)F)c43)cc2F)C1` [Example 4, cis-3-Amino-3-{5-[(7R,14R)-1-(difluoromethoxy)-5-oxo-5,6,7,14-tetrahydro-7,14-methanobenzimidazo[1,2-b][2,5]benzodiazocin-11-yl]-3-fluoropyridin-2-yl}-1-methyl-cyclobutanecarbonitrile], the IC50 was > 30 µM.

As for `[2H]C([2H])(O)[C@]1(C)C[C@@](N)(c2ncc(-c3ccc4nc5n(c4c3)[C@@H]3C[C@H]5NC(=O)c4cccc(OC(F)F)c43)cc2F)C1` [Example 16, (7R,14R)-11-(6-{cis-1-Amino-3-[hydroxy(dideutero)methyl]-3-methylcyclobutyl}-5-fluoropyridin-3-yl)-1-(difluoromethoxy)-6,7-dihydro-7,14-methanobenzimidazo[1,2-b]-[2,5]benzodiazocin-5(14H)-one], the IC50 is > 30 µM.

For the molecule `CN1C(=O)c2cccc(OC(F)F)c2[C@H]2C[C@@H]1c1nc3ccc(-c4cnc(C5(N)CCC5)nc4)cc3n12` [Example 6, (7R,14R)-11-[2-(1-Aminocyclobutyl)pyrimidin-5-yl]-1-(difluoromethoxy)-6-methyl-6,7-dihydro-7,14-methanobenzimidazo[1,2-b][2,5]benzodiazocin-5(14H)-one], the IC50 was ~8 µM.

Regarding `C[C@@H]1CC[C@@]1(N)c1ncc(-c2ccc3nc4n(c3c2)[C@@H]2C[C@H]4NC(=O)c3cccc(OC(F)F)c32)cc1F` (single isomer, unassigned) [Example 5, (7R,14R)-11-{6-[(1 S,2R)-1-Amino-2-methylcyclobutyl]-5-fluoropyridin-3-yl}-1-(difluoromethoxy)-6,7-dihydro-7,14-methanobenzimidazo[1,2-b][2,5]benzodiazocin-5(14M-one or (7R,14R)-11-{6-[(1R,2S)-1-Amino-2-methylcyclobutyl]-5-fluoropyridin-3-yl}-1-(difluoromethoxy)-6,7-dihydro-7,14-methanobenzimidazo[1,2-b][2,5]-benzodiazocin-5(14H)-one], the IC50 was > 30 µM.
